One compound from ChEMBL document CHEMBL4342523, “Discovery and Development of S6821 and S7958 as Potent TAS2R8 Antagonists” (J Med Chem, 2020) can be followed below.

A short description of series [1]: Stability of the compound in pH 5 buffer assessed as parent compound remaining measured after 24 hrs at room temperature. Format: physicochemical. The settings on record: read-out: Stability.
Series [2] is described as follows: Stability of the compound in pH 6 buffer assessed as parent compound remaining measured after 60 mins at 124 degC. Format: physicochemical. The settings on record: read-out: Stability.
Series [3] has as its target Taste receptor type 2 member 1 (Homo sapiens, UniProt Q9NYW7). Description: Agonist activity at TAS2R1 (unknown origin) by stably expressed cell-based assay.
Series [4] is described as follows: Drug metabolism in pH 7.1 buffer assessed as hydrolytic opening of hydantoin ring by measuring compound 66 formation measured under heat condition.
Series [5] can be described thus: Stability of the compound in pH 5 buffer assessed as parent compound remaining measured after 24 hrs at 100 degC. The settings on record: read-out: Stability. The series is classed as physicochemical.
Series [6] can be described thus: Stability of the compound in pH 6.5 buffer assessed as parent compound remaining measured after 30 secs at 140 degC. The settings on record: read-out: Stability. Format: physicochemical.
In series [7] the target is T1, Taste receptor type 2 member 14 (Homo sapiens) (UniProt Q9NYV8).
T1 sequence (whole entry): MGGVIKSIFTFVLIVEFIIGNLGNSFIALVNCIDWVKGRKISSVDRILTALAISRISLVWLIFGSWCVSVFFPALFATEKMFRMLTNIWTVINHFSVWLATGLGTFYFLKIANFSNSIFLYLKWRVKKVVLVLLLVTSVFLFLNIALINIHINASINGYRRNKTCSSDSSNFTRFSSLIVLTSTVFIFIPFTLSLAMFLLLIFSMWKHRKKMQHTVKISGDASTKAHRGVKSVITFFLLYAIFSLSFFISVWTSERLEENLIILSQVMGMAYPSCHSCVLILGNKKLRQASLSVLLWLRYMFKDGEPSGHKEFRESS
Description: Agonist activity at TAS2R14 (unknown origin) at 25 uM by transiently expressed cell-based assay.

Structures are written as SMILES. pEC50: −log10 of the molar value. Calls of active or inactive are those of the source. No cut-off for these calls is given here. A value given as a limit tells only on which side of the number the result lay.

Taste receptor type 2 member 1, sequence (Q9NYW7 whole entry): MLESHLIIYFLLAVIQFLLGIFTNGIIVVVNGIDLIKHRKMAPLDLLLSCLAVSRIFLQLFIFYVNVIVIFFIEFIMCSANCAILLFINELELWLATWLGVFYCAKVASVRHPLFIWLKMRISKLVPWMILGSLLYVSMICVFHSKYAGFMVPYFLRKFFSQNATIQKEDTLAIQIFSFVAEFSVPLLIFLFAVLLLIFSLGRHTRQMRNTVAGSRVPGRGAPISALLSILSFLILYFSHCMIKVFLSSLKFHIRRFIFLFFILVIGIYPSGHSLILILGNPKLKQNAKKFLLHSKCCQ

Regarding `Cc1noc(C)c1Cn1cc(N2C(=O)CN(Cc3cccc(O)c3)C2=O)cn1`, the remaining at 24 h in series [1] and in series [5] was greater than 99% each time. The remaining at 1 h in series [2] was greater than 99%. Besides, the pEC50 – broadly, the negative decadic logarithm of the EC50, by convention in mol/L – in series [3] is 3.82. Besides, in series [4], the Drug metabolism result is on record as “Metabolite detected”. For the same compound, the remaining at 0.5 min in series [6] is greater than 99%. The result in series [7] was Active.
